ED50 data for 14 compounds are collected here from ChEMBL document CHEMBL3272162, “Quinazolines and 1,4-benzodiazepines. 81. s-Triazolo[4,3-a][1,4]benzodiazepines by oxidative cyclization of hydrazones” (1977).

Holding throughout (format): functional
Test [1] relates to Mus musculus. Kind of test: CNS activity in po dosed mouse by inclined screen test.
In test [2] the test system is Mus musculus. Kind of test: CNS activity in po dosed mouse assessed as antifighting activity by foot shock test.
Test [3] deals with Mus musculus. Kind of test: CNS activity in po dosed mouse assessed as antagonism against pentylenetetrazole-induced response.

By ED50 is commonly meant the dose at which the effect has come halfway, by size or by number of responders. In the case of `[O-][N+]1=C(c2ccccc2)c2cc(Cl)ccc2-n2c(nnc2C(O)CO)C1` (configuration not stated), the ED50 with Mus musculus [1] was above 400 mg/kg; in the test on Mus musculus [2], above 100 mg/kg; with Mus musculus [3], 620 mg/kg.
`CN(C)CCNC(=O)c1nnc2n1-c1ccc(Cl)cc1C(c1ccccc1)=NC2`: the ED50 was 300 mg/kg in the test with Mus musculus [1], 100 mg/kg in the test on Mus musculus [2] and 50 mg/kg in the test on Mus musculus [3].
For `OCC(O)c1nnc2n1-c1ccc(Cl)cc1C(c1ccccc1)=NC2` (configuration not stated) the same measures were 100 mg/kg, 20 mg/kg and 3.8 mg/kg.
For `C=Cc1nnc2n1-c1ccc(Cl)cc1C(c1ccccc1Cl)=NC2` the same measures were 150 mg/kg, 6.25 mg/kg and 4.2 mg/kg.
`C=Cc1nnc2n1-c1ccc(Cl)cc1C(c1ccccc1F)=NC2`: the results for the ED50 in the test on Mus musculus [1], with Mus musculus [2] and in the test with Mus musculus [3] were 150 mg/kg, 2.5 mg/kg and 1.3 mg/kg, respectively.
For `OCC(O)c1nnc2n1-c1ccc(Cl)cc1C(c1ccccc1F)=NC2` (configuration not stated) the same measures were 200 mg/kg, 5 mg/kg and 1.5 mg/kg.
For `COC(=O)c1nnc2n1-c1ccc(Cl)cc1C(c1ccccc1)=NC2` the same measures were 40 mg/kg, 5 mg/kg and 0.9 mg/kg.
For `Cc1nnc2n1-c1ccc(Cl)cc1C(c1ccccc1)=NC2` [ALPRAZOLAM], the ED50 with Mus musculus [1] turned out to be 2 mg/kg; with Mus musculus [2], 2.5 mg/kg; in the test on Mus musculus [3], 0.3 mg/kg.
Consider `CN1C(=O)CN=C(c2ccccc2)c2cc(Cl)ccc21` [DIAZEPAM], for which the ED50 with Mus musculus [1] came out at 25 mg/kg; in the test with Mus musculus [2], 10 mg/kg; in the test with Mus musculus [3], 1.4 mg/kg.
In the same order, the values of `NNC(=O)c1nnc2n1-c1ccc(Cl)cc1C(c1ccccc1)=NC2` are 500 mg/kg, 50 mg/kg and 2.8 mg/kg.
Consider `Clc1ccc2c(c1)C(c1ccccc1)=NCc1nncn1-2` [ESTAZOLAM], for which the ED50 with Mus musculus [1] was above 400 mg/kg; in the test with Mus musculus [2] it was 0.5 mg/kg; with Mus musculus [3], 1.1 mg/kg.
In the case of `Cc1nnc2n1-c1ccc(Cl)cc1C(c1ccccc1)=[N+]([O-])C2`, the ED50 is above 400 mg/kg in the test on Mus musculus [1], 100 mg/kg in the test with Mus musculus [2] and 3.35 mg/kg with Mus musculus [3].
In the case of `CCOC(=O)NN(/C=C/c1nnc2n1-c1ccc(Cl)cc1C(c1ccccc1Cl)=NC2)C(=O)OCC`, the ED50 in the test on Mus musculus [1] is above 400 mg/kg; in the test with Mus musculus [2], above 100 mg/kg; in the test on Mus musculus [3], above 800 mg/kg.
As for `CNC1=Nc2ccc(Cl)cc2C(c2ccccc2)=[N+]([O-])C1` [CHLORDIAZEPOXIDE], the ED50 in the test on Mus musculus [1] stood at 100 mg/kg; in the test with Mus musculus [2], 40 mg/kg; with Mus musculus [3] it was 8 mg/kg.
